According to patent US11702422B2, “Imidazopyridazines as modulators of IL-17” (Janssen Pharmaceutica NV, priority 2020, dated 2023):

Key:
[1] = biological target: IL-17A(FLAG-Tagged): IL-17RA(His-Tagged) (Homo sapiens, UniProt Q16552, K93Q); assay: IL-17A(FLAG-Tagged): IL-17RA(His-Tagged) Binding Disruption Eu-HTRF Assay; conditions: IL-17A/IL-17RA binding disruption, simple average if tested more than once
In short: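 IC50 comes from a one-site competition fit of the HTRF 665/620 nm ratio. Compound dilutions (2-fold, 22 points) were held 1 h rt with FLAG-tagged IL-17A dimer, then His-tagged IL-17RA plus Eu-cryptate anti-FLAG and D2 anti-His antibodies were added for 2 h rt.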

[2] = test system: IL-17A-induced G-CSF production in human normal keratinocyte (NHK); assay: NHK Assay: IL-17A-induced G-CSF production in human normal keratinocytes; format: cell-based; conditions: 24 h, adult normal human keratinocytes, IL-17A 5 ng/mL, simple average if tested more than once
In short: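 Titrated compound plus recombinant human IL-17A (pre-incubated 1 h, rt) were applied to adult human keratinocytes at 5 ng/mL cytokine, 0.2% DMSO. Cultures ran 24 h at 37° C, and supernatant G-CSF was measured by HTRF to derive IC50.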

Sequence of UniProt Q16552 (Q16552 with tags, fused parts or gaps K93Q): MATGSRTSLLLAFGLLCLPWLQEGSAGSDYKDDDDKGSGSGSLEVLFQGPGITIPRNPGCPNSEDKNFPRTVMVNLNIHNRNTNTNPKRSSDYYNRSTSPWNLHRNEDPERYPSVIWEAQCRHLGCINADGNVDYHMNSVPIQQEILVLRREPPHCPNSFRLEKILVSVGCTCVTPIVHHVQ

| SMILES | IC50 [1] | IC50 ([2]; Homo sapiens, Keratinocyte) | IC50 [2] |
| --- | --- | --- | --- |
| O=C(CCC(F)(F)F)N[C@@H](c1cnn2cc([C@@H](NC(=O)c3cncc(C(F)F)c3)C3CCC(F)(F)CC3)nc2c1)C1CC1 [Example 455, N—((S)-(7-((R)-Cyclopropyl(4,4,4-trifluorobutanamido)methyl)imidazo[1,2-b]pyridazin-2-yl)(4,4-difluorocyclohexyl)methyl)-5-(difluoromethyl)nicotinamide] | 130 nM | 850 nM | – |
| O=C(CCC(F)(F)F)N[C@@H](c1cnn2cc([C@@H](NC(=O)C3CC34CC4)C3CCC(F)(F)CC3)nc2c1)C1CC1 (stereo partly drawn) [Example 44, N—((S)-(7-((R)-Cyclopropyl(4,4,4-trifluorobutanamido)methyl)imidazo[1,2-b]pyridazin-2-yl)(4,4-difluorocyclohexyl)methyl)spiro[2.2]pentane-1-carboxamide] | 740 nM | 1400 nM | – |
| O=C(CCC(F)(F)F)N[C@@H](c1cnn2cc([C@@H](NC(=O)c3ccncn3)C3CCC(F)(F)CC3)nc2c1)C1CC1 [Example 207, N—((S)-(7-((R)-Cyclopropyl(4,4,4-trifluorobutanamido)methyl)imidazo[1,2-b]pyridazin-2-yl)(4,4-difluorocyclohexyl)methyl)pyrimidine-4-carboxamide] | 1800 nM | 8400 nM | – |
| CC(C)n1nccc1C(=O)N[C@H](c1cn2ncc([C@H](NC(=O)COC(F)F)C3CC3)cc2n1)C1CCC(F)(F)CC1 [Example 274, N—((S)-(7-((R)-Cyclopropyl(2-(difluoromethoxy)acetamido)methyl)imidazo[1,2-b]pyridazin-2-yl)(4,4-difluorocyclohexyl)methyl)-1-isopropyl-1H-pyrazole-5-carboxamide] | 330 nM | 950 nM | – |
| O=C(CC1CC(F)(F)C1)NC(c1cnn2cc([C@@H](NC(=O)c3nonc3C3CC3)C3CCC(F)(F)CC3)nc2c1)C(F)F (single isomer, unassigned) [Example 517, 4-Cyclopropyl-N—((S)-(7-((S*)-1-(2-(3,3-difluorocyclobutyl)acetamido)-2,2-difluoroethyl)imidazo[1,2-b]pyridazin-2-yl)(4,4-difluorocyclohexyl)methyl)-1,2,5-oxadiazole-3-carboxamide] | 46 nM | – | 45 nM |
| N#CC1(C(NC(=O)CC2CC(F)(F)C2)c2cnn3cc([C@@H](NC(=O)c4nonc4C4CC4)C4CCC(F)(F)CC4)nc3c2)CC1 (single isomer, unassigned) [Example 429, N—((S)-(7-((R*)-(1-Cyanocyclopropyl)(2-(3,3-difluorocyclobutyl)acetamido)methyl)imidazo[1,2-b]pyridazin-2-yl)(4,4-difluorocyclohexyl)methyl)-4-cyclopropyl-1,2,5-oxadiazole-3-carboxamide] | 2000 nM | – | > 20000 nM |
| O=C(CCC(F)(F)F)N[C@@H](c1cnn2cc([C@@H](NC(=O)c3cccc(OC(F)F)c3)C3CCC(F)(F)CC3)nc2c1)C1CC1 [Example 167, N—((S)-(7-((R)-Cyclopropyl(4,4,4-trifluorobutanamido)methyl)imidazo[1,2-b]pyridazin-2-yl)(4,4-difluorocyclohexyl)methyl)-3-(difluoromethoxy)benzamide] | 37 nM | 160 nM | – |
| O=C(CCC(F)(F)F)N[C@@H](c1cnn2cc([C@@H](NC(=O)c3cnccn3)C3CCC(F)(F)CC3)nc2c1)C1CC1 [Example 223, N—((S)-(7-((R)-Cyclopropyl(4,4,4-trifluorobutanamido)methyl)imidazo[1,2-b]pyridazin-2-yl)(4,4-difluorocyclohexyl)methyl)pyrazine-2-carboxamide] | 2900 nM | > 20000 nM | – |
| CC(C)(C)OC[C@H](NC(=O)c1nonc1C1CC1)c1cn2ncc([C@H](NC(=O)CC3CC(F)(F)C3)C3CC3)cc2n1 [Example 319, N—((R)-2-(tert-Butoxy)-1-(7-((R)-cyclopropyl(2-(3,3-difluorocyclobutyl)acetamido)methyl)imidazo[1,2-b]pyridazin-2-yl)ethyl)-4-cyclopropyl-1,2,5-oxadiazole-3-carboxamide] | 66 nM | 330 nM | – |
| CC(C)n1nccc1C(=O)N[C@H](c1cn2ncc([C@H](NC(=O)CC(C)C(F)(F)F)C3CC3)cc2n1)C1CCC(F)(F)CC1 (single isomer, unassigned) [Example 122, N—((S)-(7-((R)-Cyclopropyl((S*)-4,4,4-trifluoro-3-methylbutanamido)methyl)imidazo[1,2-b]pyridazin-2-yl)(4,4-difluorocyclohexyl)methyl)-1-isopropyl-1H-pyrazole-5-carboxamide] | 110 nM | – | 220 nM |
| O=C(CCC(F)(F)F)N[C@@H](c1cnn2cc([C@@H](NC(=O)[C@H]3C[C@H]3C(F)F)C3CCC(F)(F)CC3)nc2c1)C1CC1 (relative stereo) [Example 359, (1S*,2R*)—N—((S)-(7-((R*)-Cyclopropyl(4,4,4-trifluorobutanamido)methyl)imidazo[1,2-b]pyridazin-2-yl)(4,4-difluorocyclohexyl)methyl)-2-(difluoromethyl)cyclopropane-1-carboxamide] | 1100 nM | 10000 nM | – |
| Cc1nonc1C(=O)N[C@H](c1cn2ncc(C(CC3CCC3)NC(=O)CC3CC(F)(F)C3)cc2n1)C1CCC(F)(F)CC1 (single isomer, unassigned) [Example 438, N—((S)-(7-((R*)-2-Cyclobutyl-1-(2-(3,3-difluorocyclobutyl)acetamido)ethyl)imidazo[1,2-b]pyridazin-2-yl)(4,4-difluorocyclohexyl)methyl)-4-methyl-1,2,5-oxadiazole-3-carboxamide] | 470 nM | – | 8000 nM |
| CC(CC(=O)N[C@@H](c1cnn2cc([C@@H](NC(=O)c3conc3C3CC3)C3CCC(F)(F)CC3)nc2c1)C1CC1)C(F)(F)F (single isomer, unassigned) [Example 128, 3-Cyclopropyl-N—((S)-(7-((R)-cyclopropyl((R*)-4,4,4-trifluoro-3-methylbutanamido)methyl)imidazo[1,2-b]pyridazin-2-yl)(4,4-difluorocyclohexyl)methyl)isoxazole-4-carboxamide] | 32 nM | – | 96 nM |
| O=C(CCC(F)(F)F)N[C@@H](c1cnn2cc([C@@H](NC(=O)c3cncc(C(F)(F)F)n3)C3CCC(F)(F)CC3)nc2c1)C1CC1 [Example 210, N—((S)-(7-((R)-Cyclopropyl(4,4,4-trifluorobutanamido)methyl)imidazo[1,2-b]pyridazin-2-yl)(4,4-difluorocyclohexyl)methyl)-6-(trifluoromethyl)pyrazine-2-carboxamide] | 620 nM | > 20000 nM | – |

Continued, in another order:

| IC50 [1] | SMILES | IC50 ([2]; Homo sapiens, Keratinocyte) | IC50 [2] |
| --- | --- | --- | --- |
| 81 nM | CCn1nncc1C(=O)N[C@H](c1cn2ncc([C@H](NC(=O)CCC(F)(F)F)C3CC3)cc2n1)C1CCC(F)(F)CC1 [Example 58, N—((S)-(7-((R)-Cyclopropyl(4,4,4-trifluorobutanamido)methyl)imidazo[1,2-b]pyridazin-2-yl)(4,4-difluorocyclohexyl)methyl)-1-ethyl-1H-1,2,3-triazole-5-carboxamide] | 270 nM | – |
| 43 nM | CC(C)c1oncc1C(=O)N[C@H](c1cn2ncc([C@H](NC(=O)CCC(F)(F)F)C3CC3)cc2n1)C1CCC(F)(F)CC1 [Example 232, N—((S)-(7-((R)-Cyclopropyl(4,4,4-trifluorobutanamido)methyl)imidazo[1,2-b]pyridazin-2-yl)(4,4-difluorocyclohexyl)methyl)-5-isopropylisoxazole-4-carboxamide] | 65 nM | – |
| 98 nM | Cc1nonc1C(=O)N[C@H](c1cn2ncc([C@H](NC(=O)CCC(F)F)C3CC3)cc2n1)C1CCC(F)(F)CC1 [Example 250, N—((S)-(7-((R)-Cyclopropyl(4,4-difluorobutanamido)methyl)imidazo[1,2-b]pyridazin-2-yl)(4,4-difluorocyclohexyl)methyl)-4-methyl-1,2,5-oxadiazole-3-carboxamide] | 390 nM | – |
| 140 nM | CC(C)c1scnc1C(=O)N[C@H](c1cn2ncc([C@H](NC(=O)CCC(F)(F)F)C3CC3)cc2n1)C1CCC(F)(F)CC1 [Example 480, N—((S)-(7-((R)-Cyclopropyl(4,4,4-trifluorobutanamido)methyl)imidazo[1,2-b]pyridazin-2-yl)(4,4-difluorocyclohexyl)methyl)-5-isopropylthiazole-4-carboxamide] | 470 nM | – |
| 220 nM | Cc1nonc1C(=O)N[C@H](c1cn2ncc([C@H](NC(=O)CC(C)(C)C(F)(F)F)C3CC3)cc2n1)C1CCC(F)(F)CC1 [Example 253, N—((S)-(7-((R)-Cyclopropyl(4,4,4-trifluoro-3,3-dimethylbutanamido)methyl)imidazo[1,2-b]pyridazin-2-yl)(4,4-difluorocyclohexyl)methyl)-4-methyl-1,2,5-oxadiazole-3-carboxamide] | 760 nM | – |
| 120 nM | COCc1nocc1C(=O)N[C@H](c1cn2ncc([C@H](NC(=O)CCC(F)(F)F)C3CC3)cc2n1)C1CCC(F)(F)CC1 [Example 102, N—[(S)-[7-[(R)-Cyclopropyl-(4,4,4-trifluorobutanoylamino)methyl]imidazo[1,2-b]pyridazin-2-yl]-(4,4-difluorocyclohexyl)methyl]-3-(methoxymethyl)isoxazole-4-carboxamide] | 270 nM | – |
| 120 nM | Cc1nonc1C(=O)N[C@H](c1cn2ncc([C@H](NC(=O)CCC(C)(F)F)C3CC3)cc2n1)C1CCC(F)(F)CC1 [Example 259, N—((S)-(7-((R)-Cyclopropyl(4,4-difluoropentanamido)methyl)imidazo[1,2-b]pyridazin-2-yl)(4,4-difluorocyclohexyl)methyl)-4-methyl-1,2,5-oxadiazole-3-carboxamide] | 620 nM | – |
